System: schedule fed male SPRD rat
Assay: Assay (I): efficacy on appetite, schedule-fed rat model, food intake (diet consumed)
Format: in vivo
Conditions: for Diet Consumed 1 hr (mean X of 8 rats): 1 hr after dosing; for Diet Consumed 2 hr (mean X of 8 rats): cumulative at 2 hr after dosing; for Diet Consumed 3 hr (mean X of 8 rats): cumulative at 3 hr after dosing
Protocol: FIG. 1: Effect on food intake in schedule fed (8 h-13 h) male SPRD rat model as described in assay 1. The rats are dosed ip at 08.00 h with vehicle, sibutramine (3 mg/kg) and (S,S)-6-(4-amino-butyl)-1-biphenyl-4-ylmethyl-3-naphthalen-2-ylmethyl-piperazine-2,5-dione (example 11) (1, 3 or 10 mg/kg). Rat chow and water is available from just post dosing, and food intake is measured every hour from dosing to 3 hours post dosing.
The bars indicate the cumulated food intake over time.
Assay (I) Experimental Protocol for Efficacy Testing on Appetite with MC4 Analogues, Using a Schedule—Fed Rat Model.
TAC:SPRD @mol rats or Wistar rats from M&B Breeding and Research Centre A/S, Denmark are used for the experiments. The rats have a bodyweight 200-250 g at the start of experiment. The rats arrive at least 10-14 days before start of experiment with a bodyweight of 180-200 g. Each dose of compound is tested in a group of 8 rats. A vehicle group of 8 rats is included in each set of testing.
When the animals arrive they are housed individually. After a habituating period of 4-7 days with free access to food and water, the schedule feeding is initiated. The rats are allowed to eat from 08 am to 01 pm each day. In the remaining period only access to water is allowed. They are kept on this feeding schedule for 8 days before start of experiment. In this period the animals are handled and dosed in the relevant way (ip, po, sc.) with saline at least 3 times. The experiment is conducted in the rat home cages. Immediately before dosing the rats are randomised to the different treatment groups (n=8) by bodyweight. They are dosed according to bodyweight at 08 am, with a 1 ml/kg solution either, ip, po or sc. The dosing time is recorded for each group. Following dosing the rats are returned to their home cages, where they now have access to food and water. The food consumption is recorded individually, each hour for 3 hours. At the end of the experimental session, the animals are euthanised.
The individual data are recorded in Microsoft excel sheets. Outliers are excluded after using the Grubbs statistical evaluation test for outliers and the result presented graphically by using the GraphPad Prism program.

| Structure (SMILES) | Diet Consumed 1 hr (mean X of 8 rats) (1 mg/kg i.p.) | Diet Consumed 2 hr (mean X of 8 rats) (1 mg/kg i.p.) | Diet Consumed 3 hr (mean X of 8 rats) (1 mg/kg i.p.) | Diet Consumed 1 hr (mean X of 8 rats) (3 mg/kg i.p.) | Diet Consumed 2 hr (mean X of 8 rats) (3 mg/kg i.p.) | Diet Consumed 3 hr (mean X of 8 rats) (3 mg/kg i.p.) | Diet Consumed 1 hr (mean X of 8 rats) (10 mg/kg i.p.) | Diet Consumed 2 hr (mean X of 8 rats) (10 mg/kg i.p.) | Diet Consumed 3 hr (mean X of 8 rats) (10 mg/kg i.p.) |
| --- | --- | --- | --- | --- | --- | --- | --- | --- | --- |
| NCCCC[C@H]1C(=O)N[C@@H](Cc2ccc3ccccc3c2)C(=O)N1Cc1ccc(-c2ccccc2)cc1 [Example 23, (S,S)-6-(4-Amino-butyl)-1-biphenyl-4-ylmethyl-3-naphthalen-2-ylmethyl-piperazine-2,5-dione] | 2.4 Grams | 6.3 Grams | 8.4 Grams | 3.4 Grams | 7.1 Grams | 8.5 Grams | 2.7 Grams | 5.4 Grams | 6.3 Grams |
| CC(C)CC(N(C)C)C1(c2ccc(Cl)cc2)CCC1 (stereo not drawn) [Sibutramine, reference compound] |  |  |  | 3.5 Grams | 7.0 Grams | 9.4 Grams |  |  |  |

— patent US20070185128A1, “Compounds and compositions for treating obesity” (priority 2002, published 2007)
